Patent US5171837A, “Peptide capable of binding interleukin 6 and an adsorbent comprising the peptide immobilized on a carrier” (Kuraray Co., Ltd., priority 1989, dated 1992)
No end group written: not given here.

Target: T1, IL-6 (Homo sapiens, UniProt P05231)
T1 construct: purchased Genzyme Corp
Assay: Activity for inhibition of binding of IL-6 to receptor by peptide (IL-6 receptor expression cells, FITC labeled anti-IL-6 antibody)
Settings: 5 μg of the peptide, 50 ng of IL-6, 10^5 IL-6 receptor expression cells, 4° C for one hour
Procedure: A human lymphocyte fraction was obtained from human peripheral blood with Ficoll-Paque (manufactured by Pharmacia-LKB). The fraction was reacted with a cultured supernatant of Epstein-Barr Virus producing cell strain B958 to transform the human lymphocytes to obtain IL-6 receptor expression cells.
1 mg of anti-human IL-6 antibody [Rabbit Anti-human Interleukin-6, manufactured by Genzyme Corp.] was dissolved in a 0.05M carbonate buffer solution (pH: 9.5) and to the resulting solution was added 10 μg of FITC [Fluorescein isothiocyanate, manufactured by Sigma Corp.]. The mixture was stirred at 4° C. overnight. The resulting solution was passed through PD-10 column (manufactured by Pharmacia-LKB) to obtain FITC labeled anti-IL-6 antibody as a firstly eluted fraction.
10^5 IL-6 receptor expression cells were suspended in 0.5 % BSA (bovine serum albumin, manufactured by Sigma Corp.)-PBS (a phosphate buffer solution containing 0.15 M sodium chloride, pH 7.4) and to the resulting suspension were added 50 ng of IL-6 (Human recombinant interleukin-6, manufactured by Genzyme Corp.) and 5 μg of the peptide obtained in any one of Examples 1 to 96. The suspension was allowed to stand at 4° C for one hour. Then, after washing the cells centrifugally with 0.5% BSA-PBS three times (1200 rpm, 5 min.), 1 μg of FITC labeled anti-IL-6 antibody was added and the mixture was allowed to stand at 4° C. for 30 minutes. After washing with 0.5% BSA-PBS three times, the intensity of fluorescence of the cells was determined. The binding inhibition activity of the peptide of each Example was evaluated, by taking the value obtained without addition of the peptide as a control and taking the value- obtained without addition of IL-6 as a blank, according to the following formula: [formula]

T1 sequence (P05231 30-212): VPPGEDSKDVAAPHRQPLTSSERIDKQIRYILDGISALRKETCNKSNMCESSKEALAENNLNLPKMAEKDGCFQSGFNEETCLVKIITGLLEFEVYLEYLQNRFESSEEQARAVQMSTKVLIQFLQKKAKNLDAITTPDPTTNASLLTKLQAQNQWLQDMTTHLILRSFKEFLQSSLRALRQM

Binding inhibition activity (%)	Substance
28	KKGTVHLLVDVPPEEPQLSCFRK [Example 10]
60	KKHSWNSSFYRLRFELRYRAERSK [Example 58]
25	KKNPRWLSVTWQDPHS [Example 50]
65	KKPHSWNSSFYRLRFELRYRAERSK [Example 66]
42	KKQALTTNKDDDNILFRDSA [Example 26]
70	KKQDPHSWNSSFYRLRFELRYRAERSK [Example 82]
55	KKRKFQNSPAEDFQEPCQYSQES [Example 18]
35	KKTSLPGDSVTLTCPGVEPED [Example 2]
55	KKWNSSFYRLRFELRYRAERSK [Example 34]
71	KKWQDPHSWNSSFYRLRFELRYRAERSK [Example 90]
28	KNPRWLSVTWQDPHSD-NH2 [Example 54]
59	KPHSWNSSFYRLRFELRYRAERSKD-NH2 [Example 70]
46	KQALTTNKDDDNILFRDSAD-NH2 [Example 30]
58	KQDPHSWNSSFYRLRFELRYRAERSKD-NH2 [Example 86]
58	KRKFQNSPAEDFQEPCQYSQESD-NH2 [Example 22]
36	KTSLPGDSVTLTCPGVEPEDD-NH2 [Example 6]
56	KWNSSFYRLRFELRYRAERSKD-NH2 [Example 38]

Binding inhibition activity (%)	Substance
63	KWQDPHSWNSSFYRLRFELRYRAERSKD-NH2 [Example 94]
22	NPRWLSVTWQDPHS [Example 53]
30	NPRWLSVTWQDPHSK [Example 49]
54	PHSWNSSFYRLRFELRYRAERSK [Example 69]
68	PHSWNSSFYRLRFELRYRAERSKK [Example 65]
41	QALTTNKDDDNILFRDSA [Example 29]
45	QALTTNKDDDNILFRDSAK [Example 25]
60	QDPHSWNSSFYRLRFELRYRAERSK [Example 85]
76	QDPHSWNSSFYRLRFELRYRAERSKK [Example 81]
52	RKFQNSPAEDFQEPCQYSQES [Example 21]
60	RKFQNSPAEDFQEPCQYSQESK [Example 17]
28	TSLPGDSVTLTCPGVEPED [Example 5]
48	WNSSFYRLRFELRYRAERSK [Example 37]
58	WNSSFYRLRFELRYRAERSKK [Example 33]
59	WQDPHSWNSSFYRLRFELRYRAERSK [Example 93]
68	WQDPHSWNSSFYRLRFELRYRAERSKK [Example 89]
